Measurements: patent publication US6476025B1, “Phenylphennanthridines with PDE-IV inhibiting activity” (Altana Pharma AG, priority 1999, dated 2002)

How the values were obtained:
PDE4 = test: Inhibition of PDE4 activity (method of Bauer and Schwabe, adapted to microtiter plates); assay type: biochemical; settings: inhibitory concentration as −log IC50 (mol/l)
Procedure: The activity test was carried out according to the method of Bauer and Schwabe, which was adapted to microtiter plates (Naunyn-Schmiedeberg's Arch. Pharmacol. 1980, 311, 193-198). The PDE reaction takes place in the first step here. In a second step, the resulting 5′-nucleotide is cleaved by a 5′-nucleotidase of the snake venom of Crotalus atrox to the uncharged nucleoside. In the third step, the nucleoside is separated from the remaining charged substrate on ion-exchange columns. The columns are eluted directly into minivials, into which 2 ml of scintillator fluid are additionally added, for counting using 2 ml of 30 mM ammonium formate (pH 6.0).
The inhibitory values determined for the compounds according to the invention [inhibitory concentration as −log Ic50 (mol/l)] follow from the following Table A, in which the numbers of the compounds correspond to the numbers of the examples.

melting point [°C]	SMILES	−log IC50, inhibition of the PDE4 activity (PDE4)
146 to 148	COc1cccc(C(=O)c2ccc(C3=N[C@H]4CCCC[C@H]4c4cc(OC)c(OC)cc43)cc2)c1 [Compound 30, (−)-cis-8,9-Dimethoxy-6-[4-(3-methoxybenzoyl)phenyl]-1,2,3,4,4a,10b-hexahydrophenanthridine]	7.94
54 to 61	COc1cc2c(cc1OC)[C@@H]1CCCC[C@@H]1N=C2c1cccc(OCC2CC2)c1 [Compound 35, (−)-cis-8,9-Dimethoxy-6-(3-cyclopropylmethoxyphenyl)-1,2,3,4,4a,10b-hexahydrophenanthridine]	7.43
147 to 152	COc1cc2c(cc1OC)[C@@H]1CCCC[C@@H]1N=C2c1ccc(OC)c(N2CCCC2=O)c1 [Compound 47, (−)-cis-8,9-Dimethoxy-6-[4-methoxy-3-(2-oxopyrrolidin-1-yl)phenyl]-1,2,3,4,4a,10b-hexahydrophenanthridine]	7.33
112.5 to 114	COc1cc2c(cc1OC)[C@@H]1CCCC[C@@H]1N=C2c1cccc(C(C)=O)c1 [Compound 49, (−)cis-8,9-Dimethoxy-6-(3-acetylphenyl)-1,2,3,4,4a,10b-hexahydrophenanthridine]	7.17
